The text below walks through data of patent publication US7547686B2, “Combretastatin A-3 prodrug” (Arizona Board of Regents, a body corporate of the State of …, priority 2001, dated 2009).

Data set [1] concerns Stenotrophomonas maltophilia, Micrococcus luteus, Staphylococcus aureus, Escherichia coli, Enterobacter cloacae, Enterococcus faecalis, Streptococcus …. To be noted: Pettit et al., 2000; cited from earlier work.
Data set [2] is classed as physicochemical. To be noted: at 25° C.
A further data set deals with Cryptococcus neoformans. As to the kind of experiment: Disk diffusion assay, Cryptococcus neoformans. Format: cell-based. The source says:
(§1) Antimicrobial susceptibility testing. Compounds were screened against the bacteria Stenotrophomonas maltophilia, Micrococcus luteus, Staphylococcus aureus, Escherichia coli, Enterobacter cloacae, Enterococcus faecalis, Streptococcus pneumoniae, Neisseria gonorrhoeae, and the fungi Candida albicans and Cryptococcus neoformans, according to established disk susceptibility testing protocols (National Committee for Clinical Laboratory Standards 1997. Performance standards for antimicrobial disk susceptibility tests-sixth edition: Approved Standard M2-A6, NCCLS, Wayne, Pa.)

The test system of data set [3] is human cancer cell lines and murine P388 lymphocytic leukemia cell line. As to the kind of experiment: Cancer cell line inhibitory activity, panel as a whole (Table II). In kind it is cell-based.
Data set [4] concerns Stenotrophomonas maltophilia, Micrococcus luteus, Staphylococcus aureus, Escherichia coli, Enterobacter cloacae, Enterococcus faecalis, Streptococcus …. The data set can be described thus: Antimicrobial disk susceptibility testing, bacteria and fungi panel. In kind it is cell-based.
Text: as §1

For `COc1ccc(/C=C/c2cc(OC)c(OC)c(OC)c2)c(O)c1O` [(E)-combretastatin A-1], the “antibacterial and antifungal activities (literature)” value in data set [1] is “antibacterial and antifungal activities”.
For orientation: Solubility means the concentration that dissolves in the medium under given conditions. Lower therefore signals a poorly soluble substance. In turn, `COc1ccc(/C=C\c2cc(OC)c(OC)c(OP(=O)([O-])O)c2)cc1OP(=O)([O-])O.[Rb+].[Rb+]` [Compound 10d] returned a Solubility in data set [2] above 60 mg/mL.
As for `COc1ccc(/C=C\c2cc(O)c(OC)c(OC)c2)cc1O` [Compound 2a, Combretastatin A-3], the MIC with Cryptococcus neoformans is listed as 50-100 μg/disk.
Regarding `COc1ccc(/C=C\c2cc(OC)c(OC)c(OP(=O)(O)O)c2)cc1OP(=O)(O)O.NC(=O)c1cccnc1.NC(=O)c1cccnc1.NC(=O)c1cccnc1.NC(=O)c1cccnc1` [Compound 10l], the Solubility in data set [2] is 27 mg/mL.
On the same count and under the same terms, in the case of `C1COCCN1.C1COCCN1.COc1ccc(C=Cc2cc(OC)c(OC)c(OP(=O)(O)O)c2)cc1OP(=O)(O)O` [Compound 10k] it was above 40 mg/mL; in that of `COc1ccc(/C=C\c2cc(OC)c(OC)c(OP(=O)([O-])O)c2)cc1OP(=O)([O-])O.[Li+].[Li+]` [Compound 10b], above 100 mg/mL.
Still for that read-out and setting: in the case of `COc1ccc(/C=C\c2cc(OC)c(OC)c(OP(=O)([O-])[O-])c2)cc1OP(=O)([O-])[O-].[Mg+2].[Mg+2]` [Compound 10h] it was 10 mg/mL.
With `COc1ccc(/C=C\c2cc(OC)c(OC)c(OP(=O)([O-])O)c2)cc1OP(=O)([O-])O.[Na+].[Na+]` [Compound 10a, Sodium combretastatin A-3 3,3′-O-phosphate], in data set [3], the “cancer cell line inhibitory activity (in words)” value is on record as “good cancer cell line inhibitory activity”. In addition, the Solubility in data set [2] is reported as above 218 mg/mL. The “activity in disk diffusion assays” value in data set [4] is “not active”.
Turning to `COc1ccc(/C=C\c2cc(OC)c(OC)c(OP(=O)([O-])O)c2)cc1OP(=O)([O-])O.[K+].[K+]` [Compound 10c], in data set [3], the “cancer cell line inhibitory activity (in words)” value is recorded as “good cancer cell line inhibitory activity”. For the same compound, in data set [2], the Solubility is given as above 228 mg/mL.
